From US9856511B2, “Protease deubiquitinating inhibitor screening” (priority 2011, dated 2018)

Columns and labels:
HCT-116 cells = experiment: Immunoblot of DNA damage markers (phosphorylated p53, H2AX); type: cell-based
Protocol: The turnover of many cell cycle regulatory proteins is controlled by the UPS including inhibitors of the cyclin-dependent kinases p21 Cip1, p27 Kip1 and the tumor suppressor p53 (4). Treatment with b-AP15 increased their levels in a dose dependent manner.
HCT-116 cells were treated with b-AP15 or doxorubicin (100 nM, as a positive control for genotoxic stress for 18 h) (FIG. 5). Cell lysates were immuno-blotted with antibodies for phosphorylated p53 and histone H2 Ax marker for DNA damage of for total levels of p53 and β-actin as loading controls.

chaperone genes = experiment: Microarray expression of chaperone genes after b-AP15 treatment; type: cell-based; conditions: b-AP15 vs vehicle
Protocol: The microarray based gene expression analysis and the Connectivity Map (CMAP) analysis was performed as previously described (40). Briefly, MCF7 cells were exposed to b-AP15 (1 μM, 6 h) or vehicle (0.1% DMSO, 6 h). RNA was isolated (RNeasy miniprep kit, Qiagen) followed by quality control, labelling and hybridization to Genome U133 Plus 2.0 arrays (Affymetrix Inc). Raw data was normalized using Mas5 (Affymetrix Inc.) and rank ordered. For selection of the 30 most induced (up tags) and the 30 most suppressed (down tags) transcripts the following criteria were used: Up tags, present call and expression over 300 arbitrary in the b-AP15 experiment; Down tags, present call after both b-AP15 and vehicle treatment, and expression over 300 arbitrary units in the vehicle experiment. For CMAP compatibility only tags (i.e. probes) present on HG U133A were used. Raw and normalized expression data have been deposited at Gene Expression Omnibus (http://www.ncbi.nlm.nih.gov/geo/) with accession number GSE24150.
Expression of chaperone genes observed in bAP15-treated cells (Table 1) is indicative of induction of a proteotoxic response.

[1] = system: Lewis Lung Carcinoma (LLC); experiment: Lewis Lung Carcinoma (LLC) syngenic tumors in C57BL/6J mice; type: in vivo; conditions: 5 mg/kg i.p., day on/2 day off schedule; p=<0.01
Protocol: In order to investigate the effect of b-AP15 on tumor growth in vivo, the compound was administered to mice bearing either a human tumor or mouse xenografts. FaDu head and neck carcinoma were chosen as a SCID mouse xenograft both as a model for a p53mut tumor and since this model is suitable for studies using circulating cell death biomarkers (30). Significant inhibition of FaDu tumor growth was observed following daily treatment with b-AP15 (treated/control tumor volume, T/C=0.4, p=<0.001). Similarly b-AP15 (day on/2 day off schedule) inhibited tumor growth in C57BL/6J mice bearing lung carcinomas (T/C=0.16, p=<0.01). […] To examine whether b-AP15 promotes tumor cell death in vivo, plasma levels of cytokeratin-18 (CK18) were analyzed. […] To investigate the ability of b-AP15 to inhibit proteasome deubiquitination in vivo, accumulation of poly-ubiquitin conjugates was analyzed by means of antibodies specific for K48 linked polyubiquitin chains. Histological analysis of treated tumors confirmed the accumulation of poly-ubiquitin conjugates. […]
Animal experiments were conducted in full accordance with Swedish governmental statutory regulations on animal welfare under permission from local ethical committees. […] All mice were monitored and weighed daily. […] After injection, tumor growth was measured daily with calipers and the tumor volume calculated by the formula L=W^2=0.44. […]

**Q.** Which results are given for C=CC(=O)N1C/C(=C\c2ccc([N+](=O)[O-])cc2)C(=O)/C(=C/c2ccc([N+](=O)[O-])cc2)C1 [b-AP15]?
**A.** level of DNA damage markers phosphorylated p53 (Ser 15) and H2AX (Ser 139) (HCT-116 cells): no increase was observed; Fold change HSPA6 (chaperone genes; probe set 117_at): 725; Fold change DNAJB1 (chaperone genes; probe set 200666_s_at): 6; Fold change HSPA1A (chaperone genes; probe set 200800_s_at): 4; Fold change DNAJA1 (chaperone genes; probe set 200880_at): 4; Fold change HSPA1B (chaperone genes; probe set 202581_at): 5; Fold change DNAJB9 (chaperone genes; probe set 202843_at): 4; Fold change DNAJB4 (chaperone genes; probe set 203810_at): 16; Fold change DNAJB4 (chaperone genes; probe set 203811_s_at): 5; Fold change HSPA4L (chaperone genes; probe set 205543_at): 13; Fold change HSPH1 (chaperone genes; probe set 206976_s_at): 5; Fold change HSPA4 (chaperone genes; probe set 211016_x_at): 4; Fold change DNAJA4 (chaperone genes; probe set 225061_at): 30; Fold change HSPD1 (chaperone genes; probe set 241716_at): 6; treated/control tumor volume, T/C [1]: 0.16
